Test results as given in ChEMBL document CHEMBL3244109, “Synthesis of cyclohexyl carbocyclic puromycin and its inhibition of protein synthesis” (J Med Chem, 1977).
Active and inactive are the calls of the source. The calls are words filed in the database; no cut-off is given here.

Assay: Inhibition of rate of poly(U,C) (unknown origin)-directed L-[14C]poly-(phenylalanine) formation in Escherichia coli cell-free ribosome system at 10^-3 M by liquid scintillation counting
Type: functional

Row | SMILES | inhibition
1 | COc1ccc(C[C@H](N)C(=O)N[C@@H]2CC[C@H](n3cnc4c(N(C)C)ncnc43)[C@H]2O)cc1 | inactive
2 | COc1ccc(C[C@H](N)C(=O)N[C@H]2CCC[C@@H](n3cnc4c(N(C)C)ncnc43)[C@@H]2O)cc1 | inactive
3 | COc1ccc(C[C@H](N)C(=O)N[C@H]2CC[C@H](n3cnc4c(N(C)C)ncnc43)[C@H]2O)cc1 | inactive
4 | COc1ccc(C[C@H](N)C(=O)N[C@@H]2CCC[C@H](n3cnc4c(N(C)C)ncnc43)[C@H]2O)cc1 | inactive
5 | COc1ccc(C[C@H](N)C(=O)N[C@H]2CC[C@@H](n3cnc4c(N(C)C)ncnc43)[C@@H]2O)cc1 | inactive
